According to patent US20030013660A1, “Dioxolane analogs for improved inter-cellular delivery” (Shire BioChem Inc., priority 2000, published 2003):
“And” between values parts separate entries of the source, which are not always exact repeats. Equal values may be shown once.

Assays:
CCRF-CEM [1] = experiment: MTT or WST-1 assay at 72 hr (24 hr drug exposure, wash, 48 hr); type: cell-based
Experimental: (§1) Exposition of 24hr to drug, washed, and incubated for another 48hr (total of 72hr assay)

H-460 [2] = experiment: 3H-TdR incorporation at 72 hr (24 hr drug exposure, wash, 48 hr); type: cell-based, Human; conditions: Homo sapiens, NCI-H460, read-out: IC50 in μM (3H-TdR incorporation at 72 hr) H-460 24 h, H-460 Human Lung Carcinoma, 72 hr assay
Experimental: (§2) Exposition of 24 hr to drug, wash, incubated for another 48 hr (total of 72 hr assay)
(§3) (3H-Thymidine Incorporation Assay)

MCF-7 [3] = experiment: as above; type: cell-based, Human; conditions: Homo sapiens, MCF7, read-out: IC50 in μM (3H-TdR incorporation at 72 hr) MCF-7 24 h, MCF-7 Human Breast Carcinoma, 72 hr assay
Experimental: as §2, §3

SF-268 [4] = experiment: as above; type: cell-based, Human; conditions: Homo sapiens, SF-268, read-out: IC50 in μM (3H-TdR incorporation at 72 hr) SF-268 24 h, SF-268 Human Central Nervous System Tumor; 24 h drug exposure, 72 hr assay
Experimental: as §2, §3

H-460 [5] = experiment: MTT assay at 72 hr (24 hr drug exposure, wash, 48 hr); type: cell-based
Experimental: as §1

CEM/dCK- [6] = experiment: MTT or WST-1 assay at 72 hr (24 hr drug exposure, wash, 48 hr); type: cell-based
Experimental: as §1

CCRF-CEM [7] = experiment: 3H-TdR incorporation at 72 hr (24 hr drug exposure, wash, 48 hr); type: cell-based; conditions: Homo sapiens, CCRF-CEM, read-out: IC50 in μM (3H-TdR incorporation at 72 hr) CCRF-CEM 24 h, CCRF-CEM T-cell Leukemia, 72 hr assay
Experimental: as §2, §3

CEM/dCK- [8] = experiment: as above; type: cell-based; conditions: for IC50: Homo sapiens, CCRF-CEM, read-out: IC50 in μM (3H-TdR incorporation at 72 hr) CEM/dCK- 24 h, CCRF-CEM deoxycytidine kinase-deficient, 24 h drug exposure, 72 hr assay; for Factor* (Resistance Factor = Ratio of dCK- on Wild-type CCRF-CEM): ratio of IC50 CEM/dCK- to IC50 CCRF-CEM
Experimental: as §2, §3

H-460 [9] = experiment: 3H-TdR (3H-thymidine) incorporation assay at 72 hr; type: cell-based, Human; conditions: Homo sapiens, NCI-H460, read-out: IC50 H-460 24 h, 24 h drug exposure, wash, another 48 hr; 3H-TdR incorporation at 72 hr
MCF-7 [10] = experiment: 3H-TdR (3H-thymidine) incorporation assay at 72 hr; type: cell-based, Human; conditions: Homo sapiens, MCF7, read-out: IC50 MCF-7 24 h, 24 h drug exposure, wash, another 48 hr; 3H-TdR incorporation at 72 hr
SF-268 [11] = experiment: 3H-TdR (3H-thymidine) incorporation assay at 72 hr; type: cell-based, Human; conditions: Homo sapiens, SF-268, read-out: IC50 SF-268 24 h, 24 h drug exposure, wash, another 48 hr; 3H-TdR incorporation at 72 hr
CCRF-CEM [12] = experiment: 3H-TdR (3H-thymidine) incorporation assay at 72 hr; type: cell-based; conditions: Homo sapiens, CCRF-CEM, read-out: IC50 CCRF-CEM 24 h, 24 h drug exposure, wash, another 48 hr; 3H-TdR incorporation at 72 hr
Experimental: (§4) Table of IC50 Values (μM) for Controls
as §2, §3

CEM/dCK- [13] = experiment: 3H-TdR (3H-thymidine) incorporation assay at 72 hr; type: cell-based
Experimental: as §4, §2, §3

SF-268 [14] = experiment: MTT assay at 72 hr (24 hr drug exposure, wash, 48 hr); type: cell-based; conditions: Homo sapiens, SF-268, read-out: IC50 SF-268 24 h, MTT at 72 hr, 24 h exposure, single experiment
Experimental: as §1

[15] = Homo sapiens, CCRF-CEM, read-out: IC50 CCRF-CEM 24 h, MMT or WST-1 at 72 hr, 24 h exposure, single experiment
[16] = Homo sapiens, NCI-H460, read-out: IC50 H-460 24 h, MTT at 72 hr, 24 h exposure, single experiment
[17] = read-out: IC50 H-460 24 h, MTT at 72 hr, 24 h exposure, single experiment
[18] = read-out: IC50 CEM/dCK- 24 h, MMT or WST-1 at 72 hr, 24 h exposure, single experiment
[19] = read-out: IC50 CEM/dCK- 24 h; MMT or WST-1 at 72 hr, 24 h exposure, single experiment
[20] = read-out: IC50 CCRF-CEM 24 h, MMT or WST-1 at 72 hr, 24 h exposure, single experiment

Row | SMILES | IC50 (CCRF-CEM [1]; [15]) | IC50 (H-460 [2]) | IC50 (MCF-7 [3]) | IC50 (SF-268 [4]) | IC50 (CEM/dCK- [6]; [18]) | IC50 (CEM/dCK- [6]; [19]) | IC50 (CCRF-CEM [1]; [20]) | other results
1 | O=C(CCCCCCCc1ccccc1)Nc1ccn([C@@H]2CO[C@H](COC(=O)CCCCCCCc3ccccc3)O2)c(=O)n1 [Compound 196, 8-PHENYL-OCTANOIC ACID 4-[2-OXO-4-(8-PHENYL- OCTANOYLAMINO)-2H- PYRIMIDIN-1-YL]- [1,3]DIOXOLAN-2-YL METHYL ESTER] | 10 nM | < 0.0001 µM | < 0.0001 µM | < 0.0001 µM |  |  |  | 
2 | CC(CCCCCCc1ccccc1)C(=O)Nc1ccn([C@@H]2CO[C@H](CO)O2)c(=O)n1 (stereo partly shown) [Compound 247, 2-Methyl-8-phenyl-octanoic acid [1-(2-hydroxymethyl-[1,3]dioxolan-4-yl)-2-oxo-1,2-dihydro-pyrimidin-4-yl]-amide] |  | 0.13 µM | 0.00078 µM | 0.13 µM | 61000 nM | 49000 nM |  | IC50 (H-460 [5]; [16]): 390 nM; IC50 (H-460 [5]; [17]): 540 nM and 460 nM; IC50 (CCRF-CEM [7]): 0.1 µM; IC50 (CEM/dCK- [8]): 15 µM; Factor* (Resistance Factor = Ratio of dCK- on Wild-type CCRF-CEM) (CEM/dCK- [8]): 150
3 | CC(=O)Oc1ccc(COC(=O)Nc2ccn([C@@H]3CO[C@H](COC(=O)OCc4ccc(OC(C)=O)cc4)O3)c(=O)n2)cc1 [Compound 202, Acetic acid 4-(1-{2-[4-(Acetyloxy)benzyloxycarbonyloxymethyl]-[1,3]dioxolan-4-yl}2-oxo-1,2-dihydropyrimidin-4-ylcarbamoyloxymethyl)-phenyl Ester] | 14 nM |  | < 0.0001 µM |  | 50 nM | > 100 nM |  | Resistance Factor* (CEM/dCK- [6]; CEM/dCK- versus CCRF-CEM, single experiment): >7; IC50 (CCRF-CEM [7]): < 0.0001 µM; Factor* (Resistance Factor = Ratio of dCK- on Wild-type CCRF-CEM) (CEM/dCK- [8]): >1000
4 | Nc1ccn([C@@H]2CO[C@H](COC(=O)C34CC5CC(CC(C5)C3)C4)O2)c(=O)n1 [Compound 110, ADAMANTANE-1-CARBOXYLIC ACID 4-(4-AMINO-2-OXO- 2H-PYRIMIDIN-1-YL)- [1,3]DIOXOLAN-2- YLMETHYL ESTER] | 3.4 nM |  |  |  |  |  | 2.5 nM and 4 nM | IC50 (H-460 [9]): 1 nM; IC50 (MCF-7 [10]): 10 nM; IC50 (SF-268 [11]): 4.9 nM; IC50 (CCRF-CEM [12]): 1.3 nM; IC50 (CEM/dCK- [13]; Homo sapiens, CCRF-CEM, read-out: IC50 CEM/dCK- 24 h, 24 h drug exposure, wash, another 48 hr, deoxycytidine kinase-deficient CCRF-CEM): 4300 nM; Factor* (Resistance Factor = Ratio of dCK- on Wild-type CCRF-CEM) (CEM/dCK- [13]; ratio of IC50 CEM/dCK- to CCRF-CEM, 24 h): 3307
5 | CCCCCCCC/C=C\CCCCCCCC(=O)Nc1ccn([C@@H]2CO[C@H](CO)O2)c(=O)n1 [Compound 219, OCTADEC-9-ENOIC ACID [1-(2-HYDROXYMETHYL- [1,3]DIOXOLAN-4-YL)-2- OXO-1,2-DIHYDRO- PYRIMIDIN-4-YL]-AMIDE] | 18 nM | ≤ 0.0001 µM | ≤ 0.0001 µM | 0.00012 µM |  |  | 10 nM | IC50 (CEM/dCK- [8]): 2.1 µM
6 | CC(C)C[C@H](NC(=O)[C@H](C)NC(=O)OC(C)(C)C)C(=O)Nc1ccn([C@@H]2CO[C@H](CO)O2)c(=O)n1 [Compound 263, (1-{1-[1-(2- HYDROXYMETHYL- [1,3]DIOXOLAN-4-YL)-2- OXO-1,2-DIHYDRO- PYRIMIDIN-4- YLCARBANOYL]-3-METHYL- BUTYLCARBAMOYL}-ETHYL)- CARBAMIC ACID TERT- BUTYL ESTER] | 19000 nM |  |  |  | > 100000 nM |  | 14000 nM | IC50 (H-460 [5]; [16]): 66000 nM; IC50 (H-460 [5]; [17]): > 100000 nM; IC50 (SF-268 [14]): > 100000 nM
7 | CCC(CCCCCCc1ccccc1)C(=O)OC[C@H]1OC[C@@H](n2ccc(N)nc2=O)O1 (stereo partly shown) [Compound 266, 2-ETHYL-8-PHENYL- OCTANOIC ACID 4-(4- AMINO-2-OXO-2H- PYRIMIDIN-1-YL)- [1,3]DIOXOLAN-2- YLMETHYL ESTER] |  |  |  |  | 21000 nM | 26000 nM |  | 
